Experimental data from patent US11932601B2, “Immunoregulatory agents” (FLEXUS BIOSCIENCES, INC., priority 2014, dated 2024).

These compounds were tested against T1, human IDO1 (Homo sapiens, UniProt P14902) (assay: HEK293 cells stably expressing human IDO1, IDO inhibition assay (kynurenine, Ehrlich reagent, absorbance 490 nm)). Settings: 20 hours incubation, 500 nM reference standard = 100% inhibition, read-out: HEK Human IDO-1 Biological Activity (IC50).
T1 construct: expressed in transfected cells
T1 sequence (P14902 whole entry): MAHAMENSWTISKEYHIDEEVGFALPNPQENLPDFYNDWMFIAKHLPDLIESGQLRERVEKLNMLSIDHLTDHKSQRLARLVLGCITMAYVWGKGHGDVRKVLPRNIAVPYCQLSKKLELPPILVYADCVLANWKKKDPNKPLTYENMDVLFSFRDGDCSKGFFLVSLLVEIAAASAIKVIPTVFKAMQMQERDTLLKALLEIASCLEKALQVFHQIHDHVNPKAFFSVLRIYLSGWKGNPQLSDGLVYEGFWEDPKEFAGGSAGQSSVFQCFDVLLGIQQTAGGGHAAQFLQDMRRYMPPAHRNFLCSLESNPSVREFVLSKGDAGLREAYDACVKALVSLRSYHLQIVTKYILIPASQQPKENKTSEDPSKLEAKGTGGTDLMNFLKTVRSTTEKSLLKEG
Assay type: cell-based
Protocol: HEK293 cells were transfected with a pCDNA-based mammalian expression vector harboring human IDO1 cDNA (NM 002164.2) by electroporation. They were cultured in medium (DMEM with 10% FBS) containing 1 mg/ml G418 for two weeks. Clones of HEK293 cells that stably expressed human IDO1 protein were selected and expanded for IDO inhibition assay.
The human IDO1/HEK293 cells were seeded at 10,000 cells per 50 μL per well with RPMI/phenol red free media contains 10% FBS in a 384-well black wall clear bottom tissue culture plate (Matrix Technologies LLC) 100 nL of certain concentration of compound was then added to each well using ECHO liquid handling systems. The cells were incubated for 20 hours in 37° C. incubator with 5% CO2.
The compound treatments were stopped by adding Trichloroacetic Acid (Sigma-Aldrich) to a final concentration at 0.2%. The cell plate was further incubated at 50° C. for 30 minute. The equal volume supernatant […] and 0.2% (w/v) Ehrlich reagent (4-dimethylaminobenzaldehyde, Sigma-Aldrich) in glacial acetic acid were mixed in a new clear bottom 384-well plate. This plate was then incubated at room temperature for 30 minute. The absorbance at 490 nm was measured on Envision plate reader.

IC50 [nM]	Structure (SMILES)
< 50	Cc1cnccc1C1CCC(C(C)C(=O)Nc2ccc(Cl)cc2)CC1 (single isomer, unassigned) [Example 313a, N-(4-chlorophenyl)-2-(4-(3-methylpyridin-4-yl)cyclohexyl) propanamide]
< 50	Cc1cnccc1C1CCC(C(C)C(=O)Nc2ccc(Cl)cc2)CC1 (single isomer, unassigned) [Example 313b, N-(4-chlorophenyl)-2-(4-(3-methylpyridin-4-yl)cyclohexyl) propanamide]
> 250	Cc1cnccc1C1CCC(C(C)C(=O)Nc2ccc(Cl)cc2)CC1 (single isomer, unassigned) [Example 313c, N-(4-chlorophenyl)-2-(4-(3-methylpyridin-4-yl)cyclohexyl) propanamide]
< 50	Cc1cnccc1C1CCC(C(C)C(=O)Nc2ccc(Cl)cc2)CC1 (single isomer, unassigned) [Example 313d, N-(4-chlorophenyl)-2-(4-(3-methylpyridin-4-yl)cyclohexyl) propanamide]
> 250	Cc1cnccc1C1CCC(C(C)C(=O)Nc2ccc(Cl)cc2)CC1 (single isomer, unassigned) [Example 313e, N-(4-chlorophenyl)-2-(4-(3-methylpyridin-4-yl)cyclohexyl) propanamide]
< 50	Cc1cnccc1C1CCC(C(C)C(=O)Nc2ccc(Cl)cc2)CC1 (single isomer, unassigned) [Example 313f, N-(4-chlorophenyl)-2-(4-(3-methylpyridin-4-yl)cyclohexyl) propanamide]
< 250	CC(C(=O)Nc1ccc(Cl)cc1)C1CCC(c2cc(-c3ccc(F)cc3)ncn2)CC1 (single isomer, unassigned) [Example 314b, N-(4-chlorophenyl)-2-(4-(6-(4-fluorophenyl)pyrimidin-4-yl)cyclohexyl) propanamide]
< 250	CC(=O)Nc1cc(C2CCC(C(C)C(=O)Nc3ccc(Cl)cc3)CC2)ccn1 (single isomer, unassigned) [Example 315a, 2-(4-(2-acetamidopyridin-4-yl)cyclohexyl)-N-(4-chlorophenyl) propanamide]
< 50	CC(=O)Nc1cc(C2CCC(C(C)C(=O)Nc3ccc(Cl)cc3)CC2)ccn1 (single isomer, unassigned) [Example 315b, 2-(4-(2-acetamidopyridin-4-yl)cyclohexyl)-N-(4-chlorophenyl) propanamide]
> 250	CC(C(=O)Nc1ccc(Cl)cc1)C1CCC(c2ccnnc2)CC1 (single isomer, unassigned) [Example 316a, N-(4-chlorophenyl)-2-(4-(pyridazin-4-yl)cyclohexyl) propanamide]
> 250	CC(C(=O)Nc1ccc(Cl)cc1)C1CCC(c2ccnnc2)CC1 (single isomer, unassigned) [Example 316b, N-(4-chlorophenyl)-2-(4-(pyridazin-4-yl)cyclohexyl) propanamide]
> 250	CC(C(=O)Nc1ccc(Cl)cc1)C1CCC(c2ccnnc2)CC1 (single isomer, unassigned) [Example 316c, N-(4-chlorophenyl)-2-(4-(pyridazin-4-yl)cyclohexyl) propanamide]
> 250	CC(C(=O)Nc1ccc(Cl)cc1)C1CCC(c2ccnnc2)CC1 (single isomer, unassigned) [Example 316d, N-(4-chlorophenyl)-2-(4-(pyridazin-4-yl)cyclohexyl) propanamide]
< 50	CC(C(=O)Nc1ccc(Cl)cc1)C1CCC(c2cccc(-c3ccccc3)c2)CC1 (single isomer, unassigned) [Example 317a, 2-(4-([1,1′-biphenyl]-3-yl)cyclohexyl)-N-(4-chlorophenyl) propanamide]
< 50	CC(C(=O)Nc1ccc(Cl)cc1)C1CCC(c2cccc(-c3ccccc3)c2)CC1 (single isomer, unassigned) [Example 317b, 2-(4-([1,1′-biphenyl]-3-yl)cyclohexyl)-N-(4-chlorophenyl) propanamide]
> 250	CC(C(=O)Nc1ccc(Cl)cc1)C1CCC(c2cccc(-c3ccccc3)c2)CC1 (single isomer, unassigned) [Example 317c, 2-(4-([1,1′-biphenyl]-3-yl)cyclohexyl)-N-(4-chlorophenyl) propanamide]
> 250	CC(C(=O)Nc1ccc(Cl)cc1)C1CCC(c2cccc(-c3ccccc3)c2)CC1 (single isomer, unassigned) [Example 317d, 2-(4-([1,1′-biphenyl]-3-yl)cyclohexyl)-N-(4-chlorophenyl) propanamide]
< 50	Cc1nccc(O[C@H]2CC[C@H](C(C)C(=O)Nc3ccc(Cl)cc3)CC2)c1Cl (single isomer, unassigned) [Example 320, rac-2-((trans)-4-((3-chloro-2-methylpyridin-4-yl)oxy)cyclohexyl)-N-(4-chlorophenyl)propanamide]
< 250	C[C@H](C(=O)Nc1ccc(Cl)cc1)[C@H]1CC[C@H](Oc2ccnc(C(F)(F)F)c2)CC1 (single isomer, unassigned) [Example 324a]
> 250	C[C@@H](C(=O)Nc1ccc(Cl)cc1)[C@H]1CC[C@H](Oc2ccnc(C(F)(F)F)c2)CC1 (single isomer, unassigned) [Example 324b]
< 50	COc1cc(C2CCC(C(C)C(=O)Nc3ccc(Cl)cc3)CC2)ccn1 (stereo not drawn) [Example 307a, Cis- or trans-N-(4-Chlorophenyl)-2-(4-(2-methoxypyridin-4-yl)cyclohexyl)propanamide]
< 50	COc1cc(C2CCC(C(C)C(=O)Nc3ccc(Cl)cc3)CC2)ccn1 (stereo not drawn) [Example 307b, Cis- or trans-N-(4-Chlorophenyl)-2-(4-(2-methoxypyridin-4-yl)cyclohexyl)propanamide]
< 250	CC(C(=O)Nc1ccc(Cl)cc1)C1CCC(c2cc(-c3ccc(F)cc3)ncn2)CC1 (centres unmarked) [Example 314a, N-(4-chlorophenyl)-2-(4-(6-(4-fluorophenyl)pyrimidin-4-yl)cyclohexyl) propanamide]
< 250	Cc1nccc(C2CCC(C(C)C(=O)Nc3ccc(Cl)cc3)CC2)n1 (centres unmarked) [Example 319a, N-(4-chlorophenyl)-2-(4-(2-methylpyrimidin-4-yl)cyclohexyl) propanamide]
> 250	Cc1nccc(C2CCC(C(C)C(=O)Nc3ccc(Cl)cc3)CC2)n1 (centres unmarked) [Example 319b, N-(4-chlorophenyl)-2-(4-(2-methylpyrimidin-4-yl)cyclohexyl) propanamide]
< 250	CC1(CC(=O)Nc2ccc(Cl)cc2)CCN(c2ccnc(C(F)(F)F)c2)CC1 [Example 321, N-(4-Chlorophenyl)-2-(4-methyl-1-(2-(trifluoromethyl)pyridin-4-yl)piperidin-4-yl)acetamide]
> 250	CC1(CC(=O)NC2(C)CCCCC2)CCN(c2ccnc(C(F)(F)F)c2)CC1 [Example 322, 2-(4-Methyl-1-(2-(trifluoromethyl)pyridin-4-yl)piperidin-4-yl)-N-(1-methylcyclohexyl)acetamide]

Structure (SMILES)	IC50 [nM]
CC(C(=O)Nc1ccc(Cl)cc1)C1CCC(c2ccncc2F)CC1 (single isomer, unassigned) [Example 318b, N-(4-chlorophenyl)-2-(4-(3-fluoropyridin-4-yl)cyclohexyl) propanamide]	< 50
CC(C(=O)Nc1ccc(Cl)cc1)C1CCC(c2ccncc2F)CC1 (single isomer, unassigned) [Example 318c, N-(4-chlorophenyl)-2-(4-(3-fluoropyridin-4-yl)cyclohexyl) propanamide]	> 250
CC(C(=O)Nc1ccc(Cl)cc1)C1CCC(c2ccncc2F)CC1 (single isomer, unassigned) [Example 318d, N-(4-chlorophenyl)-2-(4-(3-fluoropyridin-4-yl)cyclohexyl) propanamide]	< 250
CC(C(=O)Nc1ccc(Cl)cc1)C1CCC(c2ccncc2F)CC1 (single isomer, unassigned) [Example 318e, N-(4-chlorophenyl)-2-(4-(3-fluoropyridin-4-yl)cyclohexyl) propanamide]	< 50
CC(C(=O)Nc1ccc(Cl)cc1)C1CCC(c2ccncc2F)CC1 (centres unmarked) [Example 318a, N-(4-chlorophenyl)-2-(4-(3-fluoropyridin-4-yl)cyclohexyl) propanamide]	< 50
